Assay type in all cases: functional, cell-based
One assay concerns K562. In words: Antiproliferative activity against human K562 cells by MTT assay. In general terms: Tetrazolium dyes change colour on reduction, which living cells bring about.
A further assay concerns A549. In words: Antiproliferative activity against human A549 cells by MTT assay.
The nature of assay [1]: Antiproliferative activity against human SPC-A1 cells by MTT assay. Particulars: SPCA1.
The subject of assay [2] is A2780. In words: Antiproliferative activity against cisplatin-resistant human A2780 cells by MTT assay.
In assay [3] the test system is A2780. Briefly: Antiproliferative activity against cisplatin-sensitive human A2780 cells by MTT assay.

As usually defined, the IC50 is the midpoint of a concentration-inhibition curve. The low end stands for greater potency, the high end for weaker potency. In the case of `C=CCc1ccc(O)c(-c2cc(/C=C3\SC(=O)NC3=O)c(O)c(CC=C)c2)c1`, the half-inhibitory concentration (IC50) was 81.4 µM in the assay with K562, above 102 µM in the assay with A549 and above 102 µM in assay [1].
On to `C=CCc1cc(/C=C(\C#N)C(=O)OCC)c(O)c(-c2ccc(O)c(CC=C)c2)c1`, for which the half-inhibitory concentration (IC50) was 95.1 µM in the assay on K562, 87.4 µM in the assay with A549 and 92.5 µM in assay [1].
For `C=CCc1cc(/C=C2\SC(=O)NC2=O)c(O)c(-c2cc(/C=C3\SC(=O)NC3=O)c(O)c(CC=C)c2)c1` the same measures were above 76.9 µM, above 76.9 µM and above 76.9 µM.
For `C=CCc1cc(/C=N\O)c(O)c(-c2cc(/C=N/O)c(O)c(CC=C)c2)c1`, the concentration for half-maximal inhibition (IC50) came out at 29.3 µM with A2780 [2]; 21.5 µM with K562; 20.2 µM with A2780 [3]; 32.4 µM in the assay on A549; 43.8 µM in assay [1].
Consider `C=CCc1cc(/C=N/CCN)c(O)c(-c2ccc(O)c(CC=C)c2)c1`, for which the figures for the 50% inhibitory concentration (IC50) (with K562; in the assay with A549; in assay [1]) were 42.6 µM, 41.1 µM and 50.3 µM, respectively.
Take `C=CCc1ccc(O)c(-c2cc(C=O)c(O)c(CC=C)c2)c1`: the half-inhibitory concentration (IC50) is 22.4 µM in the assay with A2780 [2]; 11.9 µM in the assay on K562; 16.7 µM in the assay with A2780 [3]; 41.8 µM in the assay with A549; 25.5 µM in assay [1].
The corresponding values for `C=CCc1cc(/C=N\O)c(O)c(-c2ccc(O)c(CC=C)c2)c1` are 37.2 µM, 20.7 µM, 33 µM, 40.4 µM and 45 µM.
In the case of `C=CCc1ccc(O)c(-c2cc(/C=C(\C#N)C(=O)OCC)c(O)c(CC=C)c2)c1`, the results for the half-inhibitory concentration (IC50) (in the assay on K562; in the assay with A549; in assay [1]) were 47.6 µM, 57.6 µM and 62 µM, respectively.
With `C=CCc1cc(/C=N/CCCCCC)c(O)c(-c2ccc(O)c(CC=C)c2)c1`, the half-maximal inhibitory concentration (IC50) (with K562; in the assay with A549; in assay [1]) was above 106 µM each time.
Turning to `C=CCc1cc(C=O)c(O)c(-c2ccc(O)c(CC=C)c2)c1`, the 50% inhibitory concentration (IC50) in the assay with K562 was 38.8 µM; with A549 it was 41.8 µM; in assay [1], 38.4 µM.
The corresponding values for `C=CCc1cc(/C=N/c2ccccc2)c(O)c(-c2ccc(O)c(CC=C)c2)c1` are 32.2 µM, 39.8 µM and 40.7 µM.
Take `C=CCc1ccc(O)c(-c2ccc(O)c(CC=C)c2)c1` [HONOKIOL]: the IC50 was 41.2 µM in the assay with A2780 [2]; 21.1 µM in the assay on K562; 30.5 µM in the assay with A2780 [3]; 35 µM with A549; 36.1 µM in assay [1].
For `C=CCc1cc(C=O)c(O)c(-c2cc(C=O)c(O)c(CC=C)c2)c1`, the IC50 with K562 came to 36 µM; with A549 it was 55 µM; in assay [1], 45.3 µM.
For `C=CCc1cc(/C=C2\SC(=O)NC2=O)c(O)c(-c2ccc(O)c(CC=C)c2)c1` the same measures were 91.6 µM, 91.6 µM and above 102 µM.
For the molecule `C=CCc1ccc(O)c(-c2cc(/C=N/O)c(O)c(CC=C)c2)c1`, the half-maximal inhibitory concentration (IC50) amounted to 24.9 µM in the assay on K562, 39.5 µM with A549 and 53.1 µM in assay [1].
For `C=CCc1cc(/C=N/Nc2ccccc2)c(O)c(-c2ccc(O)c(CC=C)c2)c1` the same measures were above 104 µM, above 104 µM and above 104 µM.
For `C=CCc1cc(/C=N/C2CCCCC2)c(O)c(-c2ccc(O)c(CC=C)c2)c1` the same measures were 90.7 µM, 93.3 µM and 88 µM.
The corresponding values for `C=CCc1cc(-c2ccc(O)c(CC=C)c2)c2oncc2c1` are 78.4 µM, 65.6 µM and 77.3 µM.

The values are drawn from ChEMBL document CHEMBL1153073, “Semi-synthesis and anti-proliferative activity evaluation of novel analogues of Honokiol” (Bioorg Med Chem Lett, 2009).
